The results in this text go back to patent US7169579B2, “Method of isolating Streptococcus sobrinus and selection medium” (Nihon University, priority 2001, dated 2007).

Values after ≈ are worked out from the molar mass of the structure shown. Where two headings read alike, the source gives them in different places.

Type in all cases: cell-based
Experiment [1] deals with Streptococcus sobrinus. Put plainly: Susceptibility test to antibiotics, microbroth dilution method (MIC). The protocol:
(§1) The susceptibility test was carried out in accordance with microbroth dilution method.
(§2) The above-described antibiotics were dissolved in an appropriate solution, respectively, and the respective antibiotic solutions were divided into serial two-fold dilutions in a 96-well microtiter plates containing BHI broth. The bacteria were precultured in BHI broth, respectively, and inoculated into the wells containing the antibiotic solution to make a final concentration of the bacteria to be 1×10^4 cells/well, respectively. The plates were anaerobically incubated at a temperature of 37° C. for 48 hours. After mixing the broth in each well by the use of a pipette, the absorbance at 550 nm in each well was measured with a microplate reader (manufactured by Corona Electric Co., Ibaraki, Japan), to determine bacterial growth. The antibiotic concentration at which no bacterial growth was observed was defined as the minimal inhibitory concentration (MIC).

The subject of experiment [2] is Streptococcus mutans. Described as above. The note with it: for susceptibilities of Streptococcus mutans relative to those of Streptococcus sobrinus: from MICs of Table 2; for difference between Streptococcus mutans and Streptococcus sobrinus in their susceptibilities: in words, from MICs of Tables 2 and 3. Here is the method:
as §1, §2

Experiment [3] relates to Streptococcus sobrinus. Put plainly: Recovery from no-growth wells on MS agar: bactericidal or bacteriostatic. The protocol:
(§3) Aliquots of 10 μl of the broth in the well, which no bacterial growth was observed were inoculated onto Mitis Salivarius Agar (MS medium; manufactured by Difco) plates, respectively, and anaerobically incubated at a temperature of 37° C. for 48 hours. The recovery of the inoculated bacteria was calculated to estimate which the mechanism of growth inhibition was bactericidal or bacteriostatic.

Experiment [4] has as its system Streptococcus mutans. The description is as above. The protocol: as §3
Setting [5] is: Streptococcus sobrinus, Streptococcus sobrinus 0MZ176 (serotype d), read-out: MIC.
[6] abbreviates: Streptococcus sobrinus, Streptococcus sobrinus B-13 (serotype d), read-out: MIC.
[7] abbreviates: Streptococcus mutans 10449 (serotype c).
Setting [8] is: Streptococcus sobrinus, Streptococcus sobrinus NIDR6715, serotype g, read-out: MIC.
The mark [9] stands for this setting: Streptococcus sobrinus, Streptococcus sobrinus NUM-Ssd1, serotype d, read-out: MIC.
[10] abbreviates: Streptococcus sobrinus, Streptococcus sobrinus NUM-Ssd2, serotype d, read-out: MIC.
Where [11] appears, read: Streptococcus sobrinus, Streptococcus sobrinus OMZ65, serotype g, read-out: MIC.
The mark [12] stands for this setting: Streptococcus sobrinus, strains of Table 2, read-out: MIC to Streptococcus sobrinus.
Setting [13] is: Streptococcus mutans, Streptococcus mutans 10449 (serotype c), read-out: MIC.
The mark [14] stands for this setting: Streptococcus mutans, Streptococcus mutans Ingbritt, serotype c, read-out: MIC.
The mark [15] stands for this setting: Streptococcus mutans, Streptococcus mutans JC2 (serotype c), read-out: MIC.
[16] abbreviates: Streptococcus mutans, Streptococcus mutans LM7, serotype e, read-out: MIC.
The mark [17] stands for this setting: Streptococcus mutans, Streptococcus mutans NUM-Sme1, serotype e, read-out: MIC.
[18] abbreviates: Streptococcus mutans, Streptococcus mutans NUM-Smf1, serotype f, read-out: MIC.
Setting [19] is: Streptococcus mutans, Streptococcus mutans OMZ175, serotype f, read-out: MIC.
[20] abbreviates: Streptococcus mutans, Streptococcus mutans PS14, serotype c, read-out: MIC.
Where [21] appears, read: Streptococcus mutans, strains of Table 2, read-out: MIC to Streptococcus mutans.
Setting [22] is: Streptococcus mutans, strains of serotype f of Streptococcus mutans, summary of Table 3, read-out: MIC.
The mark [23] stands for this setting: Streptococcus mutans, strains of serotypes c and e of Streptococcus mutans, summary of Table 3, read-out: MIC.
[24] abbreviates: Streptococcus sobrinus strains of Table 3.
The mark [25] stands for this setting: Streptococcus sobrinus, strains of Table 2.
Where [26] appears, read: Streptococcus mutans strains of Table 3.
The mark [27] stands for this setting: Streptococcus mutans, strains of Table 2.

Consider `C[C@@H](O)[C@H]1C(=O)N2C(C(=O)O)=C(SCCN=CN)C[C@H]12` [Imipenem], for which the MIC (as a rule, the lowest concentration found to suppress growth) in the experiment with Streptococcus sobrinus [1] (setting [5]) came out at 0.031 µg/mL (≈ 0.104 µM); in the experiment with Streptococcus sobrinus [1] (setting [6]), 0.016 µg/mL (≈ 0.0534 µM); against Streptococcus mutans [2] (Streptococcus mutans), 0.125 µg/mL (≈ 0.418 µM); in the experiment on Streptococcus mutans [2] (setting [7]), 0.125 µg/mL (≈ 0.418 µM).
Turning to `NC(=O)OC[C@@H]1[C@H](NC(=O)/C(=N\OCC(=O)O)c2csc(N)n2)C(=O)N1S(=O)(=O)O` [Carumonam], the MIC with Streptococcus sobrinus [1] (setting [5]) is 2000 µg/mL (≈ 4290 µM); in the experiment with Streptococcus sobrinus [1] (setting [6]) it was 2000 µg/mL (≈ 4290 µM); in the experiment on Streptococcus sobrinus [1] (setting [8]), 2000 µg/mL (≈ 4290 µM); in the experiment on Streptococcus sobrinus [1] (setting [9]) it was 2000 µg/mL (≈ 4290 µM); with Streptococcus sobrinus [1] (setting [10]), 2000 µg/mL (≈ 4290 µM); with Streptococcus sobrinus [1] (setting [11]), 1000 µg/mL (≈ 2140 µM). Moreover, the MIC turned out to be 2000 µg/mL (≈ 4290 µM) in the experiment with Streptococcus sobrinus [1] (setting [12]); 125 µg/mL (≈ 268 µM) with Streptococcus mutans [2] (setting [13]); 125 µg/mL (≈ 268 µM) with Streptococcus mutans [2] (setting [14]); 125 µg/mL (≈ 268 µM) with Streptococcus mutans [2] (setting [15]); 125 µg/mL (≈ 268 µM) in the experiment on Streptococcus mutans [2] (setting [16]); 125 µg/mL (≈ 268 µM) in the experiment with Streptococcus mutans [2] (setting [17]). Also, the MIC with Streptococcus mutans [2] (setting [18]) turned out to be 250 µg/mL (≈ 536 µM); with Streptococcus mutans [2] (setting [19]), 250 µg/mL (≈ 536 µM); in the experiment with Streptococcus mutans [2] (setting [20]), 125 µg/mL (≈ 268 µM); in the experiment on Streptococcus mutans [2] (setting [21]), 125 µg/mL (≈ 268 µM); in the experiment with Streptococcus mutans [2] (setting [22]) it was 250 µg/mL (≈ 536 µM); with Streptococcus mutans [2] (setting [23]) it was 125 µg/mL (≈ 268 µM). In addition, the “susceptibilities of Streptococcus mutans relative to those of Streptococcus sobrinus” value with Streptococcus mutans [2] came to 16 fold. For the same molecule, the “mode of action (bactericidal or bacteriostatic)” value with Streptococcus sobrinus [3] (setting [24]), in the experiment with Streptococcus sobrinus [3] (setting [25]), in the experiment on Streptococcus mutans [4] (setting [26]) and with Streptococcus mutans [4] (setting [27]) was “bactericidal” each time.
In the case of `CC1=C(C(=O)O)N2C(=O)[C@@H](NC(=O)[C@H](N)c3ccccc3)[C@H]2SC1` [Cephalexin], the MIC in the experiment with Streptococcus sobrinus [1] (setting [5]), in the experiment on Streptococcus sobrinus [1] (setting [6]), with Streptococcus mutans [2] (setting [13]) and with Streptococcus mutans [2] (setting [15]) was 1.25 µg/mL (≈ 3.6 µM) each time. The “difference between Streptococcus mutans and Streptococcus sobrinus in their susceptibilities” value in the experiment on Streptococcus mutans [2] is on record as “no significant difference”.
In the case of `CC1(C)S[C@@H]2[C@H](NC(=O)Cc3ccccc3)C(=O)N2[C@H]1C(=O)O` [Benzylpenicillin], the MIC in the experiment on Streptococcus sobrinus [1] (setting [5]) worked out at 0.05 µg/mL (≈ 0.15 µM); with Streptococcus sobrinus [1] (setting [6]) it was 0.05 µg/mL (≈ 0.15 µM); in the experiment on Streptococcus mutans [2] (setting [13]), 0.1 µg/mL (≈ 0.299 µM); in the experiment with Streptococcus mutans [2] (setting [15]), 0.1 µg/mL (≈ 0.299 µM). Besides, the “susceptibilities of Streptococcus sobrinus relative to those of Streptococcus mutans” value in the experiment with Streptococcus sobrinus [1] (from MICs of Table 2) is recorded as “twice as high”.
As to `Cc1nnc(SCC2=C(C(=O)O)N3C(=O)[C@@H](NC(=O)Cn4cnnn4)[C@H]3SC2)s1` [Cefazoline], the MIC in the experiment with Streptococcus sobrinus [1] (setting [5]) is 0.25 µg/mL (≈ 0.55 µM); with Streptococcus sobrinus [1] (setting [6]), 0.5 µg/mL (≈ 1.1 µM); with Streptococcus mutans [2] (setting [13]), 0.25 µg/mL (≈ 0.55 µM); in the experiment on Streptococcus mutans [2] (setting [15]), 0.25 µg/mL (≈ 0.55 µM). Besides, in the experiment with Streptococcus mutans [2], the “difference between Streptococcus mutans and Streptococcus sobrinus in their susceptibilities” value is listed as “no significant difference”.
Turning to `O=C(Cc1cccs1)N[C@@H]1C(=O)N2C(C(=O)[O-])=C(C[n+]3ccccc3)CS[C@H]12` [Cephaloridine], the MIC against Streptococcus sobrinus [1] (Streptococcus sobrinus), with Streptococcus sobrinus [1] (Streptococcus sobrinus B-13 (serotype d)), in the experiment with Streptococcus mutans [2] (Streptococcus mutans) and with Streptococcus mutans [2] (setting [7]) was 0.025 µg/mL (≈ 0.0602 µM) in each case. Besides, in the experiment with Streptococcus mutans [2], the “difference between Streptococcus mutans and Streptococcus sobrinus in their susceptibilities” value is “no significant difference”.
On to `Cc1onc(-c2ccccc2Cl)c1C(=O)N[C@@H]1C(=O)N2[C@@H]1SC(C)(C)[C@@H]2C(=O)O` [Cloxacillin], for which the minimum inhibitory concentration (MIC) is 1.25 µg/mL (≈ 2.87 µM) in the experiment on Streptococcus sobrinus [1] (setting [5]), 1.25 µg/mL (≈ 2.87 µM) in the experiment on Streptococcus sobrinus [1] (setting [6]), 0.63 µg/mL (≈ 1.45 µM) in the experiment on Streptococcus mutans [2] (setting [13]) and 0.63 µg/mL (≈ 1.45 µM) with Streptococcus mutans [2] (setting [15]). Moreover, in the experiment with Streptococcus mutans [2], the “susceptibilities of Streptococcus mutans relative to those of Streptococcus sobrinus” value is “twice as high”.
`C[C@H]1[C@H](NC(=O)/C(=N\OC(C)(C)C(=O)O)c2csc(N)n2)C(=O)N1S(=O)(=O)O` [Aztreonam]: the MIC in the experiment with Streptococcus sobrinus [1] (setting [5]), with Streptococcus sobrinus [1] (setting [6]), in the experiment on Streptococcus sobrinus [1] (setting [8]), in the experiment with Streptococcus sobrinus [1] (setting [9]), in the experiment with Streptococcus sobrinus [1] (setting [10]) and in the experiment on Streptococcus sobrinus [1] (setting [11]) was 2000 µg/mL (≈ 4590 µM) throughout. In addition, the MIC turned out to be 2000 µg/mL (≈ 4590 µM) in the experiment on Streptococcus sobrinus [1] (setting [12]); 125 µg/mL (≈ 287 µM) in the experiment with Streptococcus mutans [2] (setting [13]); 125 µg/mL (≈ 287 µM) with Streptococcus mutans [2] (setting [14]); 125 µg/mL (≈ 287 µM) in the experiment with Streptococcus mutans [2] (setting [15]); 125 µg/mL (≈ 287 µM) in the experiment on Streptococcus mutans [2] (setting [16]); 125 µg/mL (≈ 287 µM) in the experiment on Streptococcus mutans [2] (setting [17]). The MIC in the experiment with Streptococcus mutans [2] (setting [18]) came out at 250 µg/mL (≈ 574 µM); in the experiment with Streptococcus mutans [2] (setting [19]) it was 250 µg/mL (≈ 574 µM); with Streptococcus mutans [2] (setting [20]), 125 µg/mL (≈ 287 µM); in the experiment with Streptococcus mutans [2] (setting [21]), 125 µg/mL (≈ 287 µM); in the experiment on Streptococcus mutans [2] (setting [22]) it was 250 µg/mL (≈ 574 µM); in the experiment with Streptococcus mutans [2] (setting [23]), 125 µg/mL (≈ 287 µM). Besides, the “susceptibilities of Streptococcus mutans relative to those of Streptococcus sobrinus” value in the experiment with Streptococcus mutans [2] is on record as 16 fold. Also, the “mode of action (bactericidal or bacteriostatic)” value in the experiment on Streptococcus sobrinus [3] (setting [24]), with Streptococcus sobrinus [3] (setting [25]), with Streptococcus mutans [4] (setting [26]) and in the experiment with Streptococcus mutans [4] (setting [27]) was “bactericidal” throughout.
As to `CO[C@@]1(NC(=O)Cc2cccs2)C(=O)N2C(C(=O)O)=C(COC(N)=O)CS[C@@H]21` [Cefoxitin], the “susceptibility of OMZ176 strain relative to the other bacterial strains” value with Streptococcus sobrinus [1] (Streptococcus sobrinus OMZ176 vs other strains of Table 2) is on record as “approximately 4 times”. In addition, the MIC in the experiment on Streptococcus sobrinus [1] (setting [5]) was 12.5 µg/mL (≈ 29.2 µM); with Streptococcus sobrinus [1] (setting [6]), 3.13 µg/mL (≈ 7.32 µM); with Streptococcus mutans [2] (setting [13]) it was 3.13 µg/mL (≈ 7.32 µM); in the experiment with Streptococcus mutans [2] (setting [15]), 3.13 µg/mL (≈ 7.32 µM). Besides, the “difference between Streptococcus mutans and Streptococcus sobrinus in their susceptibilities” value with Streptococcus mutans [2] was “no significant difference”.
